Laboratory results published in patent US12611398B2 (ORPHAI THERAPEUTICS INC., priority 2014, dated 2026).
“And” between values parts separate entries of the source, which are not always exact repeats. Equal entries are not always repeated. “Also recorded” adds a separate entry of the source. Where two headings read alike, the source gives them in different places.

Legend:
[1] = Particle size distribution by laser diffraction; format: physicochemical
Procedure: For jet milling, a lab scale MCOne unit from Jetpharma was used with the following operating conditions: venturi pressure 2-4 bar, milling pressure 3-5 bar, feed rate 90 g/h. For wet polishing, feed suspensions were prepared using purified water. A microfluidics high pressure homogenizer was used for the size reduction step and the resulting suspension was spray-dried. Details of the wet polishing process are set forth below.
The high pressure homogenizer used for the size reduction step of the wet polishing process was a pilot-scale Microfluidics High Pressure Homogenizer equipped with an auxiliary processing module (200 micron) and a 100 micron interaction chamber was used. The unit was operated at ˜455 bar (˜30 bar in the intensifier module hydraulic pressure). After microfluidization the fluid was removed by spray drying to generate a dry powder. A laboratory scale spray dryer, SD45 (BÜCHI, model B-290 Advanced) was equipped with a two fluid nozzle (cap and diameter were 1.4 and 0.7 mm, respectively). Two cyclones in series were used (being the first the standard Buchi cyclone and the second the high-performance Buchi cyclone) to collect the dried product. The spray drying unit was operated with nitrogen and in single pass mode, i.e. without recirculation of the drying nitrogen. The aspirator, blowing nitrogen, was set at 100% of its capacity (flow rate at maximum capacity is approximately 40 kg/h). The flow rate of the atomization nitrogen was adjusted to a value in the rotameter of 40±5 mm. Before feeding the product suspension, the spray dryer was stabilized with purified water, during which the flow rate was adjusted to 6 ml/min (20% in the peristaltic pump). The inlet temperature was adjusted to achieve the target outlet temperature (45° C.). After stabilization of the temperatures, the feed of the spray dryer was commuted from purified water to the product suspension (keeping the same flow rate used during stabilization) and the inlet temperature once again adjusted in order to achieve the target outlet temperature. At the end of the stock suspension, the feed was once more commuted to purified water in order to rinse the feed line and perform a controlled shut down. The dry product in the collection flasks under both cyclones was weighed and the yield calculated as the mass percentage of the dry product in relation to the total solids in the suspension fed to the high pressure homogenizer.
Particle size distribution was analyzed by laser diffraction. Solid state characterization (for polymorphic form and purity) was performed by high pressure liquid chromatography (HPLC), X-ray powder diffraction (XRPD), and differential scanning calorimetry (mDSC). Water content was determined by the Karl Fischer method.

[2] = 28-day repeat daily dose inhalation toxicity and toxicokinetics, rat study 7300225; details: for Max blood levels: rat, average of D28
Procedure: (§1) A second repeat exposure study was conducted to evaluate the repeat dose toxicity and toxicokinetics of the dry powder formulation administered to SD rats and Beagle dogs for 28 days.
(§2) For the rat study, standard cylindrical flow-through nose-only inhalation chambers were utilized, as above. […] For each of the three dosing groups, one set of animals (N=36) were dosed for 300 minutes each day for 28 consecutive days. On Study Days 1 and 28, blood samples were taken from animals in subgroups of 6 at the following time points: (1) Predose, (2) Midway dosing, (3) Immediate post dosing, (4) 2 hours post dosing, (5) 4 hours post dosing, (6) 12 hours post dosing and (7) 24 hours post dosing.

[3] = Observation for adverse effects / clinical signs after dosing; format: in vivo, C57BL/6 mice; details: 1 mg/kg, up to 72 h following dosing
Procedure: The oral dose was formulated using pharmaceutical oral liquid formulation Rapamune Oral® (Pfizer). […] An additional group of 6 mice received vehicle only (10% ethanol in water). […] At the 72-h necropsy, blood was obtained by cardiac puncture and the lungs removed.
The time of dosing was recorded as 0. Animals in groups 2 and 3 were euthanized at 1 h after dosing.

[4] = tested on: TSC2 deficient TRI-AML101 cell line; assay: Cell viability, CellTiter-Glo luminescence assay, 10 point dose response; details: 72 hours after compound addition, relative to DMSO control
Procedure: Two thousand cells in 50 uL of growth media (DMEM, 10% FBS, and 1% Penicillin/Streptomycin) were plated per well in a 96 well plate. […] 72 hours after compound addition, relative cell viability was determined by CellTiter-Glo® luminescence assay (Promega) and expressed as a percentage relative to vehicle (DMSO) treated control cells.

[5] = human, Rapamune NDA 21-110 and 21-083; cited from earlier work
[6] = 28-day repeat daily dose inhalation toxicity and toxicokinetics, dog study 7300227; details: beagle, in vivo
Source text: For the dog study, a positive flow delivery system (PFDS) consisting of a central plenum and delivery arms was utilized. The central plenum was of modular design with separate ports into which were attached 5 delivery arms fitted with oronasal exposure masks fitted with inlet and outlet tubes. The mask was fitted over the dog's muzzle in such a way that the nose was inside the mask, allowing entrance and exit of air. During exposure, animals wore a harness and were placed on a restraint platform. The harness was attached to two side poles on the platform in order to restrict lateral movement of the dog. The front part of the harness was loosely attached to a hook on the front of the platform to prevent the animal from turning around. […] For each dosing group, one set of animals (N=6) was dosed for 60 minutes each day for 28 consecutive days.

[7] = in vivo; details: Sprague-Dawley, rat
Procedure: as §1, §2

[8] = Rapamycin in lung and blood after oropharyngeal aspiration (OPA) and oral gavage, LC-MS/MS; format: in vivo, C57BL/6 mice
Procedure: Dosing: Each animal was weighed prior to dosing to determine the amount of dose to be administered. A single gavage dose was administered using a 100-μL glass syringe (Hamilton, Reno, Nev.) fitted with a ball-tipped 20-G stainless steel gavage dosing needle (Popper & Sons Inc., New Hyde Park, N.Y.). The dose administered to each animal was determined from the weight of the full syringe minus that of the empty syringe. The dosing time was recorded. Dosing of animals was spaced apart to allow blood collection at the appropriate times. The dose formulations administered to each group are shown below.
Each mouse was anesthetized with isoflurane and restrained with the mouth open. The tongue was held to one side of the mouth with forceps, and the dose was slowly injected into the distal part of the oral cavity. The nostrils were covered with a finger for two breaths to ensure aspiration (Rao et al., 2003).
Collection of Blood and Lung Samples: At study termination (1 or 72 h after dosing), mice were anesthetized by exposure to CO2, and blood was collected by cardiac puncture with dipotassium EDTA as anticoagulant. Lung tissue was excised and divided into the right and left lung. The left lung was used for analysis, and the right lung flash frozen in liquid nitrogen and stored at −70° C. for further analysis.
Triamcinolone was used as internal standard.
Lung homogenate was prepared by homogenization of weighed lung samples with 2.8-mm ball bearings in a homogenizer with tissue+deionized water (1:3 w/v) in a SPEX SamplePrep 2010 Geno/Grinder.
The concentrations of standards were arranged so that each standard came from an alternate stock standard. A six-point calibration curve, each made in triplicate, was employed for analyte quantitation. A simple linear regression model with or without weighting was employed for curve fitting. The concentration range determined was from 1-2000 ng/mL in blood and 2-2000 ng/mL in lung homogenate.
Thirty (30) μL of matrix, 30 μL of spiking solution (methanol for blanks and samples), 10 μL Internal standard solution (in MeOH) and 90 μL of MeOH were pipetted into microcentrifuge tubes, vortexed briefly, then centrifuged for 6 min at 10,000 RPM at −4° C. Aliquots (90 μL) of supernatant were transferred to LC vial inserts, and then analyzed by LC-MS/MS (Table 2).

[9] = tested on: phosphorylated S6 (mTOR pathway); assay: S6 phosphorylation by western blot in AML cells; format: cell-based, human; details: 20 nM, 24 hours
[10] = lymphangioleiomyomatosis patients, McCormack et al. (2011); cited from earlier work
[11] = Extrapolation of rat and dog inhalation data to human dosing; details: extrapolated
[12] = IV 10 mg/kg single dose, 24 hours; cited from earlier work
[13] = tested on: Phospho-S6 Ribosomal Protein (Ser240/244); assay: S6 phosphorylation in rat lung homogenate, western blot (S6-P/total S6); format: in vivo, Sprague-Dawley rats; details: inhalation, target dose 0.354 mg/kg
Procedure: Lungs samples from each animal were collected and snap frozen. The individual frozen lung samples were homogenized (Qiagen TissueLyser LT according to manufacturer's protocols) in 1×RIPA Buffer with protease and phosphatase inhibitors. […] The Western blot images were analyzed by NIH image) v1.48 to generate the respective antibody reactivity/intensity and create the ratio of S6 phosphorylation (S6-P) to total S6 intensities for each lung sample. The 56-P/total S6 ratios (y-axis) for sample organized by timepoint group (X-axis) were plotted on a one grouping variable scatter plot vertical graph (GraphPad, version 4.0), all samples in groups are represented by filled in black dots (●) on the graph and average is shown by the horizontal line between the dots within each respective group (FIG. 8B).

[14] = tested on: phosphorylated S6 protein (biomarker for mTOR activity); assay: S6 phosphorylation in mouse lung following oral and OPA administration; format: in vivo, C57bl/6 mice
Source text: To validate this approach, we used the presence of phosphorylated S6 protein in murine lung tissue as a biomarker for mTOR activity. In the mouse strain used (C57b1/6), the mouse airway and alveolar epithelial cells have constitutively active (phosphorylated, “p”) S6 protein. The S6 protein is typically phosphorylated by S6K which is downstream of mTORC1 and is activated, for example downstream of growth factors such as epidermal growth factor (EGF), AKT, ERK, and RSK. mTORC1 promotes cell growth and proliferation by stimulating anabolic processes such as biosynthesis of lipids, proteins, and organelles, and suppressing catabolic processes such as autophagy.

[15] = 24 hours after 14th dose, cited from earlier work
[16] = 2012 meta-analysis of published trials; cited from earlier work
[17] = emitted dose 87 ug, repeat inhaled daily dose 35 ug
[18] = emitted dose 175 ug, repeat inhaled daily dose 70 ug

In the case of `CO[C@H]1C[C@@H]2CC[C@@H](C)[C@@](O)(O2)C(=O)C(=O)N2CCCC[C@H]2C(=O)O[C@H]([C@H](C)C[C@@H]2CC[C@@H](O)[C@H](OC)C2)CC(=O)[C@H](C)/C=C(\C)[C@@H](O)[C@@H](OC)C(=O)[C@H](C)C[C@H](C)/C=C/C=C/C=C/1C` [Rapamycin], the “PSD Dv10” value ([1]; jet milling) is reported as 1.5 μm and 1.51 μm, the “PSD Dv50” value ([1]; jet milling) is reported as 2.7 μm and 2.74 μm and the “PSD Dv90” value ([1]; jet milling) is reported as 4.9 μm and 4.91 μm. For the same molecule, the “PSD Dv10” value ([1]; wet polishing) was 1.0 μm and 1.05 μm, the “PSD Dv50” value ([1]; wet polishing) was 2.4 μm and 2.42 μm and the “PSD Dv90” value ([1]; wet polishing) was 5.0 μm and 4.97 μm. The respiratory function ([2]; nose-only inhalation) was “no changes in respiratory function”, the Max blood levels ([2]; emitted dose 50 ug, repeat inhaled daily dose 5 ug) was 7.6 ng/mL and the Max blood levels ([2]; emitted dose 1425 ug, repeat inhaled daily dose 143 ug) was 70.5 ng/mL. The Max blood levels ([2]; emitted dose 2850 ug, repeat inhaled daily dose 285 ug) was 77.8 ng/mL, the “adverse effects / clinical signs” value [3] was “No adverse effects were observed; also recorded: No significant clinical signs were observed” and the “lowest concentration inhibiting viability” value [4] was 0.05 nM. The clearance [5] was 0.0003 min⁻¹, the NOAEL at 28 days [6] was 0.0134 mg/kg/day and the NOAEL at 28 days [7] was 8.91 mg/kg/day. For the same molecule, the Rapamycin in Blood ([8]; OPA 1 mg/kg, 72 h) was “below the limit of quantitation; also recorded: undetectable”, the Blood concentration ([8]; OPA 1 mg/kg, 72 h post-dose, individual animal) was “<ELOQ” and the Lung concentration ([8]; gavage (Rapamune Oral) 1 mg/kg, 1 h post-dose, individual animal, 1 mg/kg) was “<LOQ”. For the same molecule, the “rapamycin in lung or blood” value ([8]; oral (gavage) 1 mg/kg, 72 hrs) was “undetectable”, the S6 phosphorylation [9] was “potently inhibits S6 phosphorylation” and the blood concentrations [10] was 5 to 15 ng/mL. For the same molecule, the Blood trough levels [11, 17] was 0.15 ng/mL, the “Lung 24 hr trough levels” value [11, 17] was 2 ng/g and the Max blood levels [11, 17] was 0.65 ng/mL. For the same molecule, the Blood trough levels [11, 18] was 0.3 ng/mL, the “Lung 24 hr trough levels” value [11, 18] was 4 ng/g and the Max blood levels [11, 18] was 1.3 ng/mL. For the same molecule, the “Rapamycin in Blood” value [12] was 31 ng/mL, the “Rapamycin in Lung” value [12] was 721 ng/g and the “S6 phosphorylation in lung tissue” value [13] was “Inhibits S6 Phosphorylation”. The “level of phosphorylated S6 (pS6) in lung” value ([14]; 1 mg/kg OPA, 1 hr) was “reduced substantially”, the “level of phosphorylated S6 (pS6) in lung” value ([14]; 1 mg/kg OPA, 72 hr) was “remained suppressed” and the “level of phosphorylated S6 (pS6) in lung” value ([14]; 1 mg/kg oral gavage, 1 hr) was “reduced substantially”. The “Rapamycin in Blood” value ([15]; IV 0.04 mg/kg/day) was 9.4 ng/mL, the “Rapamycin in Lung” value ([15]; IV 0.04 mg/kg/day) was 219 ng/g and the “Rapamycin in Blood” value ([15]; IV 0.08 mg/kg/day) was 15.0 ng/mL. The “Rapamycin in Lung” value ([15]; IV 0.08 mg/kg/day) was 457 ng/g, the “Rapamycin in Blood” value ([15]; IV 0.40 mg/kg/day) was 19.6 ng/mL and the “Rapamycin in Lung” value ([15]; IV 0.40 mg/kg/day) was 868 ng/g. The “Rapamycin in Blood” value ([15]; oral 0.4 mg/kg/day) was 0.8 ng/mL, the “Rapamycin in Lung” value ([15]; oral 0.4 mg/kg/day) was 42 ng/g and the “Rapamycin in Blood” value ([15]; oral 0.8 mg/kg/day) was 2.1 ng/mL. For the same molecule, the “Rapamycin in Lung” value ([15]; oral 0.8 mg/kg/day) was 59 ng/g.

In the case of `CO[C@H]1C[C@@H]2CC[C@@H](C)[C@@](O)(O2)C(=O)C(=O)N2CCCC[C@H]2C(=O)O[C@H]([C@H](C)C[C@@H]2CC[C@@H](OCCO)[C@H](OC)C2)CC(=O)[C@H](C)/C=C(\C)[C@@H](O)[C@@H](OC)C(=O)[C@H](C)C[C@H](C)/C=C/C=C/C=C/1C` [everolimus], the “cancer patients experiencing mild grade pulmonary toxicity” value [16] is listed as 10%.

For `CO[C@H]1C[C@@H]2CC[C@@H](C)[C@@](O)(O2)C(=O)C(=O)N2CCCC[C@H]2C(=O)O[C@H]([C@H](C)C[C@@H]2CC[C@@H](OC(=O)C(C)(CO)CO)[C@H](OC)C2)CC(=O)[C@H](C)/C=C(\C)[C@@H](O)[C@@H](OC)C(=O)[C@H](C)C[C@H](C)/C=C/C=C/C=C/1C` [temsirolimus], the “cancer patients experiencing mild grade pulmonary toxicity” value [16] is listed as 10%.
